System: SCD1 expression
Experiment: Inhibition assay: qPCR of SCD1 expression in HepG2 cells (Biological Example 1)
Assay type: cell-based
Settings: Homo sapiens, 24 hours; for inhibition at 10 µM: read-out: Inhibition Percentage (%) 10 μM (SCD1 expression); for inhibition at 1 µM: read-out: Inhibition Percentage (%) 1 μM (SCD1 expression)
Method: HepG2 cells were grown in Dulbecco's Modified Eagle Medium (DMEM) containing 5% FBS and antibiotic-antimycotic in a humidified incubator at 37° C. with 5% CO2. All three components were purchased from ThermoFisher Scientific (Catalog numbers are 11995073, 26140079, and 15240062, respectively). Treatments were done in duplicates for each dose of each compound. For control and treated each treatment, 400,000 HepG2 cells were seeded onto 1 well of 24-well plate. After one day in culture, cells were treated with the test compound (1 μM and/or 10 μM, as indicated below in Table 1) for 24 hours in DMEM with 5% FBS. Compounds were diluted using DMSO from 20 mM stocks. Total RNAs were extracted using RNA extraction kit (Cat #: 45001163, Fisher Scientific) or Trizol. If Trizol was used, RNAs were treated with DNase I (cat #: 18068015, ThermoFisher Scientific) before qPCR. RNA concentrations were measured on a Nanodrop. One-step qPCR were performed using SYBR Green One Step qPCR Kit (Cat #: B25002, Biotool). 10 ng RNA was used in each 10-ul reaction. Triplicate reactions were done for each RNA sample. qPCR was performed on an ABI StepOnePlus using the program: Holding stage step 1, 50° C. 3 min, step 2, 95° C. 5 min; Cycling stage (40 cycles) step 1, 95° C. 10 sec, step 2, 60° C. 30 sec. Primer sequence was as follows: SCD1, 5′-[…]-3′/5′-[…]-3′.
All data was measured in HepG2 cells. % inhibition data of SCD1 expression are provided in Table 1. % inhibition at 10 μM is provided as follows: A≥75%; 75%>B≥50%; 50%>C≥10%. % inhibition at 1 μM is provided as follows: A1≥30%; 30%>B1≥2%. NI means no inhibition in the assay at the indicated concentration of compound tested. NT means not tested.

Compound | inhibition at 10 µM | inhibition at 1 µM
CCCc1cc(-n2cc(-c3ccc(NS(=O)(=O)C4CC4)cc3)cn2)ccn1 [Example 1, N-(4-(1-(2-propylpyridin-4-yl)-1H-pyrazol-4-yl)phenyl)cyclopropanesulfonamide] | > 75% | –
CCCc1cc(-n2cc(-c3ccc(NS(=O)(=O)CC4CC4)cc3)cn2)ccn1 [Example 2, 1-cyclopropyl-N-(4-(1-(2-propylpyridin-4-yl)-1H-pyrazol-4-yl)phenyl)methanesulfonamide] | > 75% | –
CCCc1cc(-n2cc(-c3ccc(NCC(C)C)cc3)cn2)ccn1 [Example 3, N-isobutyl-4-(1-(2-propylpyridin-4-yl)-1H-pyrazol-4-yl)aniline] | > 75% | –
CCCc1cc(-n2cc(-c3ccc(NS(=O)(=O)C(C)C)cc3)cn2)ccn1 [Example 4, N-(4-(1-(2-propylpyridin-4-yl)-1H-pyrazol-4-yl)phenyl)propane-2-sulfonamide] | > 75% | –
CCCc1cc(-n2cc(-c3ccc(NS(=O)(=O)C4CC4)nc3)cn2)ccn1 [Example 5, N-(5-(1-(2-propylpyridin-4-yl)-1H-pyrazol-4-yl)pyridin-2-yl)cyclopropanesulfonamide] | 10 to 50% | –
CCCc1cc(-n2cc(-c3ccc(NC(C)C)cc3)cn2)ccn1 [Example 6, N-isopropyl-4-(1-(2-propylpyridin-4-yl)-1H-pyrazol-4-yl)aniline] | > 75% | –
CCCc1cc(-n2cc(-c3ccc(NC(C)C)nc3)cn2)ccn1 [Example 7, N-isopropyl-5-(1-(2-propylpyridin-4-yl)-1H-pyrazol-4-yl)pyridin-2-amine] | > 75% | –
CCCc1cc(-n2cc(-c3ccc(NCC(C)C)nc3)cn2)ccn1 [Example 8, N-isobutyl-5-(1-(2-propylpyridin-4-yl)-1H-pyrazol-4-yl)pyridin-2-amine] | > 75% | –
CCCc1cc(-n2cc(-c3ccc(NS(C)(=O)=O)cc3Cl)cn2)ccn1 [Example 9, N-(3-chloro-4-(1-(2-propylpyridin-4-yl)-1H-pyrazol-4-yl)phenyl)methanesulfonamide] | > 75% | ≥ 30%
CCCc1cc(-n2cc(-c3ccc(NS(=O)(=O)C4CC4)cc3Cl)cn2)ccn1 [Example 10, N-(3-chloro-4-(1-(2-propylpyridin-4-yl)-1H-pyrazol-4-yl)phenyl)cyclopropanesulfonamide] | > 75% | ≥ 30%
CCCc1cc(-n2cc(-c3ccc(NS(=O)(=O)C(F)(F)F)cc3Cl)cn2)ccn1 [Example 11, N-(3-chloro-4-(1-(2-propylpyridin-4-yl)-1H-pyrazol-4-yl)phenyl)-1,1,1-trifluoromethanesulfonamide] | 10 to 50% | –
CCCc1cc(-n2cc(-c3ccc(NC(C)C)cc3Cl)cn2)ccn1 [Example 13, 3-chloro-N-isopropyl-4-(1-(2-propylpyridin-4-yl)-1H-pyrazol-4-yl)aniline] | > 75% | ≥ 30%
CCCc1cc(-n2cc(-c3ccc(NCC(C)C)cc3Cl)cn2)ccn1 [Example 14, 3-chloro-N-isobutyl-4-(1-(2-propylpyridin-4-yl)-1H-pyrazol-4-yl)aniline] | > 75% | ≥ 30%
CCCc1cc(-n2cc(-c3ccc(NCC(C)C)cn3)cn2)ccn1 [Example 15, N-isobutyl-6-(1-(2-propylpyridin-4-yl)-1H-pyrazol-4-yl)pyridin-3-amine] | > 75% | 2 to 30%
CCCc1cc(-n2cc(-c3ccc(NCC4CC4)cn3)cn2)ccn1 [Example 16, N-(cyclopropylmethyl)-6-(1-(2-propylpyridin-4-yl)-1H-pyrazol-4-yl)pyridin-3-amine] | > 75% | 2 to 30%
CCCc1cc(-n2cc(-c3ccc(NCC4CC4)cc3Cl)cn2)ccn1 [Example 17, 3-chloro-N-(cyclopropylmethyl)-4-(1-(2-propylpyridin-4-yl)-1H-pyrazol-4-yl)aniline] | > 75% | ≥ 30%
CCCc1cc(-n2cc(-c3ccc(NS(=O)(=O)C4CC4)cn3)cn2)ccn1 [Example 18, N-(6-(1-(2-propylpyridin-4-yl)-1H-pyrazol-4-yl)pyridin-3-yl)cyclopropanesulfonamide] | > 75% | –

Compound | inhibition at 10 µM | inhibition at 1 µM
CCCc1cc(-n2cc(-c3ccc(NS(=O)(=O)CC4CC4)cn3)cn2)ccn1 [Example 19, 1-cyclopropyl-N-(6-(1-(2-propylpyridin-4-yl)-1H-pyrazol-4-yl)pyridin-3-yl)methanesulfonamide] | > 75% | 2 to 30%
CCCc1cc(-n2cc(-c3ccc(NS(C)(=O)=O)cn3)cn2)ccn1 [Example 20, N-(6-(1-(2-propylpyridin-4-yl)-1H-pyrazol-4-yl)pyridin-3-yl)methanesulfonamide] | 10 to 50% | –
CCCc1cc(-n2cc(-c3ccc(NC(C)C)cn3)cn2)ccn1 [Example 21, N-isopropyl-6-(1-(2-propylpyridin-4-yl)-1H-pyrazol-4-yl)pyridin-3-amine] | > 75% | 2 to 30%
CCCc1cc(-n2cc(-c3ccc(NC4CCCC4)cn3)cn2)ccn1 [Example 23, N-cyclopentyl-6-(1-(2-propylpyridin-4-yl)-1H-pyrazol-4-yl)pyridin-3-amine] | > 75% | 2 to 30%
CCCc1cc(-n2cc(-c3ncc(NC(C)C)cc3Cl)cn2)ccn1 [Example 24, 5-chloro-N-isopropyl-6-(1-(2-propylpyridin-4-yl)-1H-pyrazol-4-yl)pyridin-3-amine] | > 75% | ≥ 30%
CCCc1cc(-n2cc(-c3ncc(NC4CCCC4)cc3Cl)cn2)ccn1 [Example 25, 5-chloro-N-cyclopentyl-6-(1-(2-propylpyridin-4-yl)-1H-pyrazol-4-yl)pyridin-3-amine] | > 75% | ≥ 30%
CCCc1cc(-n2cc(-c3ncc(NCC(C)C)cc3Cl)cn2)ccn1 [Example 26, 5-chloro-N-isobutyl-6-(1-(2-propylpyridin-4-yl)-1H-pyrazol-4-yl)pyridin-3-amine] | > 75% | ≥ 30%
CCCc1cc(-n2cc(-c3ncc(NCC4CC4)cc3Cl)cn2)ccn1 [Example 27, 5-chloro-N-(cyclopropylmethyl)-6-(1-(2-propylpyridin-4-yl)-1H-pyrazol-4-yl)pyridin-3-amine] | > 75% | ≥ 30%
CCCc1cc(-n2cc(-c3ncc(NS(=O)(=O)C4CC4)cc3Cl)cn2)ccn1 [Example 28, N-(5-chloro-6-(1-(2-propylpyridin-4-yl)-1H-pyrazol-4-yl)pyridin-3-yl)cyclopropanesulfonamide] | > 75% | 2 to 30%
CCCc1cc(-n2cc(-c3ncc(NS(=O)(=O)CC4CC4)cc3Cl)cn2)ccn1 [Example 29, N-(5-chloro-6-(1-(2-propylpyridin-4-yl)-1H-pyrazol-4-yl)pyridin-3-yl)-1-cyclopropylmethanesulfonamide] | > 75% | 2 to 30%
CCCc1cc(-n2cc(-c3ncc(NS(C)(=O)=O)cc3Cl)cn2)ccn1 [Example 30, N-(5-chloro-6-(1-(2-propylpyridin-4-yl)-1H-pyrazol-4-yl)pyridin-3-yl)methanesulfonamide] | 50 to 75% | –
CCCc1cc(-n2cc(-c3ccc(NC4CCCC4)nc3)cn2)ccn1 [Example 32, N-cyclopentyl-5-(1-(2-propylpyridin-4-yl)-1H-pyrazol-4-yl)pyridin-2-amine] | > 75% | –
CCCc1cc(-n2cc(-c3ccc(NC4CCC4)nc3)cn2)ccn1 [Example 33, N-cyclobutyl-5-(1-(2-propylpyridin-4-yl)-1H-pyrazol-4-yl)pyridin-2-amine] | > 75% | ≥ 30%
CCCc1cc(-n2nc(C)c(-c3ccc(NCC(C)C)nc3)c2C)ccn1 [Example 34, 5-(3,5-dimethyl-1-(2-propylpyridin-4-yl)-1H-pyrazol-4-yl)-N-isobutylpyridin-2-amine] | 50 to 75% | 2 to 30%
CCCc1cc(-n2nc(C)c(-c3ccc(NCC4CC4)nc3)c2C)ccn1 [Example 35, N-(cyclopropylmethyl)-5-(3,5-dimethyl-1-(2-propylpyridin-4-yl)-1H-pyrazol-4-yl)pyridin-2-amine] | 50 to 75% | 2 to 30%
CCCc1cc(-n2nc(C)c(-c3ccc(NC(C)C)nc3)c2C)ccn1 [Example 36, 5-(3,5-dimethyl-1-(2-propylpyridin-4-yl)-1H-pyrazol-4-yl)-N-isopropylpyridin-2-amine] | 50 to 75% | –
CCCc1cc(-n2nc(C)c(-c3ccc(NC4CCC4)nc3)c2C)ccn1 [Example 38, N-cyclobutyl-5-(3,5-dimethyl-1-(2-propylpyridin-4-yl)-1H-pyrazol-4-yl)pyridin-2-amine] | > 75% | ≥ 30%
